This note sets out measurements from article PMC12750388, “Coumarin-1,2,3-Triazole Conjugates as Molecular Scaffolds for the Selective Induction of ROS-Driven Apoptosis in Cancer Cells in the Development of Pyruvate Kinase M2 Inhibitors” (ACS Omega, 2025).

Each structure is given as a SMILES string.

A word on the IC50: it is the point on the concentration scale where inhibition reaches its midpoint.

The test system of one series is SCC-9 cell line. Kind of series: MTT cell viability assay, SCC-9. It is filed as cell-based, human. The conditions noted are these: for IC50: MTT, 48 h; for SI SCC-9: IC50 human gingival fibroblast / IC50 SCC-9. Here is the method: (§1) The viability of SCC cell lines and primary human fibroblast cells was evaluated using the MTT assay to determine half maximal inhibitory concentration (IC50). Briefly, cells were grown in triplicate in 96-well plates (5 × 10^3 cells/well) until confluence. Then the medium was removed, fresh medium was added, and the cells were returned to the incubator in the presence of different compounds. DMSO at the same concentrations was used as a 100% cell viability control. After 48 h, cells were incubated with 5 mg/mL MTT reagent (3-(4,5-dimethyl-2-thiazolyl)-2,5-diphenyl-2-H-tetrazolium bromide) (Sigma-Aldrich Co., St. Louis, MO, USA) for 3.5 h. After that, formazan crystals were dissolved in MTT solvent solution (DMSO/methanol 1:1 v/v), and the absorbance at 560 nm was evaluated using an EPOCH microplate spectrophotometer (BioTek Instruments, Winooski, VT, USA) with the background absorbance at 670 nm subtracted. Each of the 12 compounds (7a–7l) was tested at six different concentrations, ranging from 6.25 to 200 μM in cancer and normal cell lines. Control (carboplatin) was tested at six different concentrations ranging from 25 μM to 800 μM in cancer cells and from 50 μM to 1600 μM in normal cells.
(§2) Half-maximal inhibitory concentration (IC50) values were obtained from the MTT assay of at least three independent replicates through nonlinear regression analysis using GraphPad Prism 5.0 software (Intuitive Software for Science, San Diego, CA, USA). Data were presented as means ± standard deviation (SD). A log dose–response curve (inhibitor vs response) using the least-squares method was used to determine the IC50 and SD from the data. The selectivity index (SI) was calculated as the ratio between the IC50 in normal cells and the IC50 in cancer cells, obtained by dividing the IC50 of normal cells by the IC50 of cancer cells.
Background: Tetrazolium dyes change colour on reduction, which living cells bring about.

The subject of a further series is SCC-9 cells. In words: MTT cell viability with N-acetyl-L-cysteine pretreatment. It is filed as cell-based, human. The settings on record: SCC-9, 48 h; 7f 1 × IC50, menadione 20 μM. The method, then:
The production of reactive oxygen species (ROS) was assessed by the detection of hydrogen peroxide (H2O2) using the ROS-Glo H2O2 assay kit (Promega Corporation, Madison, WI, USA; G8820). […] A plate with wells without cells was used as a control. Cells and cell-free wells remained in treatment at times of interest, and 2 h before completion of the times, well volumes were removed to reduce to 40 μL per well. Then the positive control of menadione (Sigma-Aldrich Co., St. Louis, MO, USA), a polycyclic aromatic ketone based on 1,4-naphthoquinone, was used to treat its respective well, and H2O2 substrate from the kit was added for all treatments, followed by the incubation of the plate for the remaining 2 h. Then the detection solution was added, and the plates remained at room temperature for 20 min, following the reading in the TD 20/20 luminometer (Turner Designs, Sunnyvale, CA, USA). The reading of bioluminescence detected is indicated as arbitrary units (a.u.). Additionally, the cell viability was assessed through pretreatment of cells with 10 mM N-acetyl-L-cysteine (NAC) (Sigma-Aldrich Co., St. Louis, MO, USA) for 2 h. […] At the end of the time, the MTT cell viability assay was performed.

Another series relates to SCC-4. In words: MTT cell viability assay, SCC-4. It is filed as cell-based, human. The settings on record: for IC50: MTT, 48 h; for SI SCC-4: IC50 human gingival fibroblast / IC50 SCC-4. Here is the method: as §1, §2
A further series relates to SCC-25. In words: MTT cell viability assay, SCC-25. In kind it is cell-based, human. The conditions noted are these: for IC50: MTT, 48 h; for SI SCC-25: IC50 human gingival fibroblast / IC50 SCC-25. The method, then: as §1, §2
Series [1] relates to Primary Gingival Fibroblast. In words: MTT cell viability assay, normal cells. In kind it is cell-based, human. The settings on record: for IC50: MTT, 48 h, normal cells; for Average SI: average of SI for SCC-9, SCC-4 and SCC-25 versus gingival fibroblast. Here is the method: as §1, §2
Another series has as its system erythrocytes. In words: Hemolysis assay. In kind it is cell-based. The settings on record: human erythrocytes, 300 μM. Here is the method:
A hemolysis assay to evaluate surfactant effects of tested substances was performed using human blood approved by the Research Ethics Committee of Universidade Federal Fluminense (CAAE: 43134721.4.0000.5626). Erythrocytes are isolated upon three repeated centrifugation cycles at 1500 rpm for 15 min. Between each cycle of centrifugation, supernatant was removed, and a pH 7.5 PBS (phosphate-buffered saline) solution supplemented with 10 mM glucose was added to remove lysed erythrocytes. The number of cells was determined in an Automatic Cell Counter (Thermo Fisher, Waltham, MA, USA). Erythrocytes were then plated in 96-well plates at a concentration of 4 × 10^8 cells/well in triplicates, and 10 μL of compounds were added at a final concentration of 300 μM in PBS with glucose (final volume 100 μL). Ten μL of PBS was used as a negative control, and 10 μL of PBS with 0.1% Triton X-100 was used as a positive control. Data reading was performed with EPOCH (BioTek Instruments, Winooski, VT, USA) at an absorbance of 540 nm.

As to `O=c1cc(OCCCn2cc(COc3cc(=O)oc4ccccc34)nn2)c2ccccc2o1` [Compound 7g, 4-(3-(4-(((2-Oxo-2H-chromen-4-yl)oxy)methyl)-1H-1,2,3-triazol-1-yl)propoxy)-2H-chromen-2-one], in the series with SCC-9 cell line (Homo sapiens, SCC-9), the half-maximal inhibitory concentration (IC50) is greater than 150 µM.
Same read-out and setting: the same measure for `CCCCCCc1cn(CCCOc2cc(=O)oc3ccccc23)nn1` [Compound 7l, 4-(3-(4-Hexyl-1H-1,2,3-triazol-1-yl)propoxy)-2H-chromen-2-one]: greater than 150 µM; for `O=C1C=C(OCc2cn(CCOc3cc(=O)oc4ccccc34)nn2)C(=O)c2ccccc21` [Compound 7b, 2-((1-(2-((2-Oxo-2H-chromen-4-yl)oxy)ethyl)-1H-1,2,3-triazol-4-yl)methoxy) naphthalene-1,4-dione]: greater than 200 µM.
In the case of `CC1=CC(=O)c2ccccc2C1=O` [menadione, reference compound], the “cell viability in the presence of 10 mM N-acetyl-L-cysteine (NAC)” value with SCC-9 cells was “NAC protected cell death”.
`CC(C)=CC1=C(OCc2cn(CCOc3cc(=O)oc4ccccc34)nn2)C(=O)c2ccccc2C1=O` [Compound 7c, 2-(2-Methylprop-1-en-1-yl)-3-((1-(2-((2-oxo-2H-chromen-4-yl)oxy)ethyl)-1H-1,2,3-triazol-4-yl)methoxy)naphthalene-1,4-dione]: the IC50 was 28.9 µM in the series with SCC-9 cell line (Homo sapiens, SCC-9); 17 µM in the series with SCC-4 (Homo sapiens, SCC-4); 28.5 µM with SCC-25 (Homo sapiens, SCC-25); 30.9 µM in series [1] (Homo sapiens, Fibroblast). Further, the “SI SCC-9” value with SCC-9 cell line worked out at 1.07. Besides, the “SI SCC-4” value with SCC-4 is given as 1.82. Also, the “SI SCC-25” value with SCC-25 was determined as 1.08. The “Average SI” value in series [1] was determined as 1.32.
As for `CC(=O)OCc1cn(CCCOc2cc(=O)oc3ccccc23)nn1` [Compound 7h, (1-(3-((2-Oxo-2H-chromen-4-yl)oxy)propyl)-1H-1,2,3-triazol-4-yl)methyl acetate], the IC50 with SCC-9 cell line (Homo sapiens, SCC-9) is greater than 200 µM.
The same measure, in the same setting: the same measure for `CC(C)=CCC1=C(OCc2cn(CCOc3cc(=O)oc4ccccc34)nn2)C(=O)c2ccccc2C1=O` [Compound 7d, 2-(3-Methylbut-2-en-1-yl)-3-((1-(2-((2-oxo-2H-chromen-4-yl)oxy)ethyl)-1H-1,2,3-triazol-4-yl)methoxy)naphthalene-1,4-dione]: greater than 150 µM; for `O=c1cc(OCCn2cc(-c3ccccc3)nn2)c2ccccc2o1` [Compound 7i, 4-(2-(4-Phenyl-1H-1,2,3-triazol-1-yl)ethoxy)-2H-chromen-2-one]: greater than 200 µM.
With `N.N.O=C([O-])C1(C(=O)[O-])CCC1.[Pt+2]` [Carboplatin, reference compound], in the series with SCC-9 cell line, the “SI SCC-9” value was determined as 2.31 and the 50% inhibitory concentration (IC50) was 150 µM. In the series on SCC-4, the “SI SCC-4” value is on record as 2.45 and half-maximal inhibition (IC50) required 142 µM. In the series on SCC-25, the “SI SCC-25” value came to 1.40 and the half-inhibitory concentration (IC50) came to 249 µM. For the same compound, in series [1], half-maximal inhibition (IC50) required 348 µM and the “Average SI” value is recorded as 2.05. For the same compound, the “hemolytic activity / membrane integrity” value in the series on erythrocytes is listed as “neither carboplatin nor PBS affected the membrane integrity”.
Take `CCCCCCc1cn(CCOc2cc(=O)oc3ccccc23)nn1` [Compound 7j, 4-(2-(4-Hexyl-1H-1,2,3-triazol-1-yl)ethoxy)-2H-chromen-2-one]: in the series on SCC-9 cell line (Homo sapiens, SCC-9), the IC50 is greater than 200 µM.
The same measure, in the same setting: the value for `O=C1C=C(NCc2cn(CCOc3cc(=O)oc4ccccc34)nn2)C(=O)c2ccccc21` [Compound 7a, 2-(((1-(2-((2-Oxo-2H-chromen-4-yl)oxy)ethyl)-1H-1,2,3-triazol-4-yl)methyl)amino) naphthalene-1,4-dione] was greater than 200 µM; that for `O=C1C=C(NCc2cn(CCCOc3cc(=O)oc4ccccc34)nn2)C(=O)c2ccccc21` [Compound 7e, 2-(((1-(3-((2-Oxo-2H-chromen-4-yl)oxy)propyl)-1H-1,2,3-triazol-4-yl)methyl)amino) naphthalene-1,4-dione] was greater than 150 µM.
